Results published in patent publication US8318779B2, “Lysine related derivatives as HIV aspartyl protease inhibitors” (priority 2006, dated 2012).
Read-outs that look alike come from different tables or passages of the source.

Tests used:
[1] = test system: wild type laboratory HIV strain (WT IIIB-2-001); assay: Cellular anti-viral assay in HIV-infected MT4-LTR-EGFP cells (GFP reporter), wild type strain; format: cell-based
Method: The compound having structural formula (III) was tested in a cellular assay using the MT4-LTR-EGFP cells for anti-viral activity.
(§1) The cellular assay was performed according to the following procedure.
(§2) HIV- or mock-infected MT4-LTR-EGFP cells were incubated for three days in the presence of various concentrations of the compound according to the invention. As reference compounds APV, IDV, RTV, NFV, TPV and LPV were used. Upon infection, the viral tat protein activates the GFP reporter. At the end of the incubation period, the GFP signal was measured. In the virus control samples (in the absence of any inhibitor) the maximal fluorescent signal was obtained. The inhibitory activity of the compounds were monitored on the virus-infected cells and were expressed as EC50. These values represent the amount of the compound required to protect 50% of the cells from virus infection.

[2] = test system: clinically isolated HIV strain r13363 harboring several mutations; assay: Cellular anti-viral assay in HIV-infected MT4-LTR-EGFP cells (GFP reporter), clinically isolated mutant strain; format: cell-based
Method: Because of the increasing emergence of drug resistant HIV strains, the present compound was also tested for its potency against a clinically isolated HIV strain harboring several mutations. These mutations are associated with resistance to protease inhibitors and result in viruses that show various degrees of phenotypic cross-resistance to the currently commercially available drugs such as for instance saquinavir, ritonavir, nelfinavir, indinavir and amprenavir. The viral strain tested R13363 contains mutations as indicated below.
as §1, §2

[3] = Human immunodeficiency virus 1, IIIB, read-out: HIV-AVE-MT4LTREGFP-IIIB pEC50 (converted)
[4] = Human immunodeficiency virus 1, read-out: HIV-AVE-MT4LTREGFP-r13363 pEC50 (converted)

Compound	EC50 [1, 3]	EC50 [2, 4]	other results
COC(=O)N[C@H](C(=O)NCCCC[C@@H](CO)N(CC(C)C)S(=O)(=O)c1ccc(CN)cc1)C(c1ccccc1)c1ccccc1 [formula (III), (S)—(S)-(1-{5-[(4-Aminomethyl-benzenesulfonyl)-isobutyl-amino]-6-hydroxy-hexylcarbamoyl}-2,2-diphenyl-ethyl)-carbamic acid methyl ester]			EC50 ([1]; Human immunodeficiency virus 1, 72 h, wild type (IIIB), MT4-LTR-EGFP cells, three days incubation, read-out: pEC50—IIIB (converted)): 31.6 nM; anti-HIV activity against wild type laboratory HIV strain ([1]; MT4-LTR-EGFP cells, WT IIIB-2-001): potent anti-HIV activity; EC50 ([2]; Human immunodeficiency virus 1, 72 h, read-out: pEC50-r13363 (converted)): 31.6 nM
CC(C)(C)NC(=O)[C@@H]1CN(Cc2cccnc2)CCN1C[C@@H](O)C[C@@H](Cc1ccccc1)C(=O)N[C@H]1c2ccccc2C[C@H]1O [IDV, indinavir]	39.8 nM	398 nM	
CC(C)CN(C[C@@H](O)[C@H](Cc1ccccc1)NC(=O)O[C@H]1CCOC1)S(=O)(=O)c1ccc(N)cc1 [APV, amprenavir]	50.1 nM	10000 nM	
Cc1c(O)cccc1C(=O)N[C@@H](CSc1ccccc1)[C@H](O)CN1C[C@H]2CCCC[C@H]2C[C@H]1C(=O)NC(C)(C)C [NFV, nelfinavir]	63.1 nM	1580 nM	
CC(C)c1nc(CN(C)C(=O)N[C@H](C(=O)N[C@@H](Cc2ccccc2)C[C@H](O)[C@H](Cc2ccccc2)NC(=O)OCc2cncs2)C(C)C)cs1 [RTV, ritonavir]	63.1 nM	10000 nM	
Cc1cccc(C)c1OCC(=O)N[C@@H](Cc1ccccc1)[C@@H](O)C[C@H](Cc1ccccc1)NC(=O)[C@H](C(C)C)N1CCCNC1=O [LPV, lopinavir]	12.6 nM	631 nM	
CCC[C@@]1(CCc2ccccc2)CC(O)=C([C@H](CC)c2cccc(NS(=O)(=O)c3ccc(C(F)(F)F)cn3)c2)C(=O)O1 [TPV]			HIV-AVE-MT4LTREGFP-IIIB pEC50 ([1]; reference compounds, wild type (IIIB), MT4-LTR-EGFP cells): 6.3 =; HIV-AVE-MT4LTREGFP-r13363 pEC50 ([2]; reference compounds, clinically isolated HIV strain r13363, MT4-LTR-EGFP cells): 6.3
